Bounds are passed on as bounds.

Test [1] has as its system 697 Human B-ALL Cell Lines. Briefly: MTT assay, chemosensitivity of 697 cells (wild type, shControl, Mer knockdown), 48 hours. In kind it is cell-based. The procedure: Inhibition of Mer expression results in increased chemosensitivity in 697 cells. […] IC50 values were determined by non-linear regression of data from at least three independent experiments performed in triplicate, as shown in Table 1.

In the next test the test system is A172 glioblastoma cells. In words: MTT assay, chemosensitivity of A172 control and knockdown cells. In kind it is cell-based. The procedure:
(§1) G12 control (shControl) and knockdown cells (shMer1 and shMer4; shAxl8 and shAxl9) were plated in 96-well plates at concentrations determined to allow linear growth over 3 days: A) cells were treated with varying concentrations of temozolomide and relative cell number was assessed 48 h after treatment by colorimetric assessment/MTT assay. Error bars denote experiments performed in triplicate. A172 control (shControl) and knockdown cells (shMer1A and shMer1B; shAxl8 and shAxl9) were plated in 96-well plates at concentrations determined to allow linear growth over 3 days: B) cells were treated with varying concentrations of carboplatin and relative cell number was assessed 48 h after treatment by colorimetric assessment/MTT assay. Error bars represent three independent experiments performed in triplicate.
(§2) Table 4 provides the IC50 with 95% CI for G12 and A172 control and Mer and Axl knockdown cells, in response to chemotherapy. In Table 4, ‘NR’ indicates an IC50 was never reached. ‘IND’ represents that that CI was indeterminate. The IC50 for each knockdown line was compared to the control line, and an ‘*’ represents that the comparison is statistically different while an ‘NS’ represents that there was no statistically significant difference because either the CI was indeterminate (as with the G12 shAxl9 line treated with carboplatin) or it overlapped with the shControl CI.

In the next test the test system is G12 astrocytoma cells. In words: MTT assay, chemosensitivity of G12 astrocytoma control and knockdown cells. In kind it is cell-based. On the procedure:
as §1, §2

For test [2], the system named is A549 Human NSCLC Cell Lines. Briefly: Relative cell numbers of A549 cells (wild type, shControl, Axl/Mer knockdown) after 48 hours of drug. In kind it is cell-based. The settings on record: for sensitivity of the shAxl9-D3 Axl knockdown clone: A549 shAxl9-D3, 48 hours; for IC50: 48 hours, relative cell number.
The next test deals with A549 cells. Briefly: Induction of apoptosis / cell death in A549 knockdown cells treated with doxorubicin. In kind it is cell-based, human.
In test [3] the test system is A549 Human NSCLC Cell Lines. Briefly: BrdU incorporation ELISA, relative cell proliferation of A549 cells, 48 hours. Format: cell-based. Conditions: for sensitivity of A549 cells with inhibition of Mer expression: A549 Mer1-G8 knockdown, BrdU; for IC50: BrdU assay. On the procedure:
The relative cell proliferation was determined via a BrdU incorporation ELISA. IC50 values were determined by non-linear regression of data from at least three independent experiments performed in triplicate (see Table 3).

Another test has as its system 697 cells. In words: Flow cytometry of apoptotic and dead cells (YO-PRO-1 / propidium iodide), 697 cells. Format: cell-based, human. The settings on record: 697 shMer1A vs shControl, 48 hours. The procedure:
Apoptotic and dead cells were identified by flow cytometric analysis of cells stained with YO-PRO®-1 and propidium iodide: A) representative flow cytometry profiles; B) mean values and standard errors derived from 3 independent experiments.
Cultures of shControl or shMer1A 697 cells were exposed to 6-MP, VP-16, or medium only for 48 hours: A) Apoptotic and dead cells were identified by flow cytometric analysis of cells stained with YO-PRO®-1 and propidium iodide: Representative flow cytometry profiles; B) the percentages of apoptotic and dead cells are indicated in lower-right and upper-right quadrants, respectively. Mean values and standard errors derived from 3 independent experiments. Results were tested for significance using two-way ANOVA and Bonferroni posttests to compare shControl and shMer1A cells at equivalent drug concentrations.

The mark [4] stands for this setting: 697 shMer1A (Mer knockdown) cells.
Setting [5] is: 697 shMer1B (Mer knockdown) cells.
[6] abbreviates: Homo sapiens, A549, 48 h, A549 Wild Type.
[7] abbreviates: Homo sapiens, A549, 48 h, A549 shAxl8-G5 (Axl knockdown).
Where [8] appears, read: Homo sapiens, A549, 48 h, A549 shAxl9-D3 (Axl knockdown).
The mark [9] stands for this setting: Homo sapiens, A549, 48 h, A549 shControl.
The mark [10] stands for this setting: Homo sapiens, A549, 48 h, A549 shMer1-G8 (Mer knockdown).
[11] abbreviates: Homo sapiens, A549, 48 h, A549 Wild Type, 48 hours.
Where [12] appears, read: Homo sapiens, A549, 48 h, A549 shAxl8-G5, 48 hours.
Setting [13] is: Homo sapiens, A549, 48 h, A549 shAxl9-D3, 48 hours.
[14] abbreviates: Homo sapiens, A549, 48 h, A549 shControl, 48 hours.
The mark [15] stands for this setting: Homo sapiens, A549, 48 h, A549 shMer1-G8, 48 hours.

As to `CC[C@]1(O)C[C@H]2CN(CCc3c([nH]c4ccccc34)[C@@](C(=O)OC)(c3cc4c(cc3OC)N(C=O)[C@H]3[C@@](O)(C(=O)OC)[C@H](OC(C)=O)[C@]5(CC)C=CCN6CC[C@]43[C@@H]65)C2)C1` [VCR, vincristine], the IC50 in test [1] (697 Wild Type cells) was 1.04 nM; in test [1] (697 shControl cells) it was 1.02 nM; in test [1] (setting [4]), 0.54 nM; in test [1] (setting [5]), 0.46 nM; in the test with A172 glioblastoma cells (Homo sapiens, A 172, A172 shAxl8, MTT), 0.68 nM; in the test with A172 glioblastoma cells (Homo sapiens, A 172, A172 shAxl9, MTT) it was 2.92 nM. Also, the IC50 in the test with A172 glioblastoma cells (Homo sapiens, A 172, A172 shControl, MTT) stood at 2.54 nM; in the test on A172 glioblastoma cells (Homo sapiens, A 172, A172 shMer1A, MTT), 1.25 nM; in the test on A172 glioblastoma cells (Homo sapiens, A 172, A172 shMer1B, MTT), 0.54 nM; in the test with G12 astrocytoma cells (G12 shAxl8, MTT) it was 0.31 nM; in the test with G12 astrocytoma cells (G12 shAxl9, MTT), 0.2 nM; in the test with G12 astrocytoma cells (G12 shControl, MTT), 1.64 nM. In addition, the IC50 was 0.74 nM with G12 astrocytoma cells (G12 shMer1, MTT) and 0.22 nM in the test with G12 astrocytoma cells (G12 shMer4, MTT).

Consider `COc1cccc2c1C(=O)c1c(O)c3c(c(O)c1C2=O)C[C@@](O)(C(=O)CO)C[C@@H]3O[C@H]1C[C@H](N)[C@H](O)[C@H](C)O1` [DOXO, doxorubicin], for which the “sensitivity of the shAxl9-D3 Axl knockdown clone” value in test [2] is reported as “more sensitive”. In addition, the IC50 worked out at 34.9 nM in test [2] (setting [6]); 2.1 nM in test [2] (setting [7]); 13 nM in test [2] (setting [8]); 69.2 nM in test [2] (setting [9]); 71.2 nM in test [2] (setting [10]); 16.7 nM in test [1] (697 Wild Type cells). For the same molecule, the IC50 in test [1] (697 shControl cells) was found to be 11.1 nM; in test [1] (setting [4]), 2.83 nM; in test [1] (setting [5]) it was 3.26 nM; in test [3] (setting [11]) it was 43.1 nM; in test [3] (setting [12]), 50 nM; in test [3] (setting [13]), 33.2 nM. The IC50 in test [3] (setting [14]) amounted to 51.1 nM; in test [3] (setting [15]), 20.4 nM. Besides, in the test with A549 cells (A549 Axl knockdown vs shControl), the “induction of apoptosis with inhibition of Axl” value is on record as “increased induction of apoptosis”. Moreover, the “level of cell death in Mer knockdown cells” value in the test on A549 cells (A549 Mer knockdown cells, treated vs untreated) is given as “did not increase the level of cell death”. The “sensitivity of A549 cells with inhibition of Mer expression” value in test [3] (48 hours) is on record as “increased sensitivity”.

For `Cn1nnc2c(C(N)=O)ncn2c1=O` [Temozolomide, temozolomide], the IC50 in the test on A172 glioblastoma cells (Homo sapiens, A 172, 48 h, A172 shAxl8, 48 h, MTT) is 27600 nM; in the test with A172 glioblastoma cells (Homo sapiens, A 172, 48 h, A172 shAxl9, 48 h, MTT), 38900 nM; in the test with A172 glioblastoma cells (Homo sapiens, A 172, 48 h, A172 shControl, 48 h, MTT), 51400 nM; in the test with A172 glioblastoma cells (Homo sapiens, A 172, 48 h, A172 shMer1A, 48 h, MTT), 21300 nM; in the test with A172 glioblastoma cells (Homo sapiens, A 172, 48 h, A172 shMer1B, 48 h, MTT), 7700 nM; in the test with G12 astrocytoma cells (48 h, G12 shAxl8, 48 h, MTT), 6900 nM. For the same molecule, the IC50 with G12 astrocytoma cells (48 h, G12 shAxl9, 48 h, MTT) was determined as 1800 nM; in the test on G12 astrocytoma cells (48 h, G12 shControl, MTT), 68600 nM; with G12 astrocytoma cells (48 h, G12 shMer1, 48 h, MTT) it was 18200 nM; in the test on G12 astrocytoma cells (48 h, G12 shMer4, 48 h, MTT) it was 1000 nM.

Take `COc1cc([C@@H]2c3cc4c(cc3[C@@H](O[C@@H]3O[C@@H]5CO[C@@H](C)O[C@H]5[C@H](O)[C@H]3O)[C@H]3COC(=O)[C@H]23)OCO4)cc(OC)c1O` [VP-16, etoposide]: the “sensitivity of the shAxl9-D3 Axl knockdown clone” value in test [2] is “more sensitive”. In addition, the IC50 in test [2] (setting [6]) is 2200 nM; in test [2] (setting [7]), 330 nM; in test [2] (setting [8]), 1010 nM; in test [2] (setting [9]), 3320 nM; in test [2] (setting [10]), 3840 nM; in test [1] (697 Wild Type cells), 181 nM. Also, the IC50 in test [1] (697 shControl cells) was 173 nM; in test [1] (setting [4]) it was 54 nM; in test [1] (setting [5]) it was 60.3 nM; in test [3] (setting [11]), 720 nM; in test [3] (setting [12]), 1400 nM; in test [3] (setting [13]) it was 590 nM. Further, the IC50 in test [3] (setting [14]) turned out to be 910 nM; in test [3] (setting [15]), 370 nM. In addition, the “induction of apoptotic cell death with Mer knockdown” value in the test on 697 cells is “increased induction of apoptotic cell death”. The “sensitivity of A549 cells with inhibition of Mer expression” value in test [3] (48 hours) is listed as “increased sensitivity”.

Regarding `N.N.[Cl][Pt][Cl]` [Cispl, cisplatin], the IC50 amounted to 6480 nM in test [2] (A549 Wild Type); 510 nM in test [2] (A549 shAxl8-G5 (Axl knockdown)); 3400 nM in test [2] (A549 shAxl9-D3 (Axl knockdown)); 8560 nM in test [2] (A549 shControl); 3000 nM in test [2] (A549 shMer1-G8 (Mer knockdown)); 2100 nM in test [3] (A549 Wild Type, 48 hours). Moreover, the IC50 in test [3] (A549 shAxl8-G5, 48 hours) stood at 2700 nM; in test [3] (A549 shAxl9-D3, 48 hours), 2300 nM; in test [3] (A549 shControl, 48 hours), 1700 nM; in test [3] (A549 shMer1-G8, 48 hours), 1000 nM. Besides, in test [2], the “sensitivity of the shAxl9-D3 Axl knockdown clone” value was “more sensitive”.

Consider `Sc1ncnc2nc[nH]c12` [6-MP, 6-mercaptopurine], for which the IC50 is above 64000 nM in test [1] (697 Wild Type cells), above 64000 nM in test [1] (697 shControl cells), 2860 nM in test [1] (setting [4]) and 3240 nM in test [1] (setting [5]). For the same molecule, the “induction of apoptotic cell death with Mer knockdown” value in the test with 697 cells is listed as “increased induction of apoptotic cell death”.

As for `N.N.O=C([O-])C1(C(=O)[O-])CCC1.[Pt+2]` [Carbo, carboplatin], the IC50 was above 160000 nM in test [2] (A549 Wild Type); 9130 nM in test [2] (A549 shAxl8-G5 (Axl knockdown)); above 160000 nM in test [2] (A549 shControl); 93400 nM in test [2] (A549 shMer1-G8 (Mer knockdown)); 19800 nM in test [3] (A549 Wild Type, 48 hours); 16900 nM in test [3] (A549 shAxl8-G5, 48 hours). Besides, the IC50 worked out at 15200 nM in test [3] (A549 shAxl9-D3, 48 hours); 15400 nM in test [3] (A549 shControl, 48 hours); 7200 nM in test [3] (A549 shMer1-G8, 48 hours); 35 nM with A172 glioblastoma cells (A172 shAxl8, 48 h, MTT); 75 nM in the test on A172 glioblastoma cells (A172 shAxl9, 48 h, MTT); 820 nM in the test with A172 glioblastoma cells (A172 shMer1A, 48 h, MTT). Further, the IC50 was 210 nM in the test on A172 glioblastoma cells (A172 shMer1B, 48 h, MTT); 280 nM in the test with G12 astrocytoma cells (G12 shAxl8, 48 h, MTT); 200 nM in the test with G12 astrocytoma cells (G12 shAxl9, 48 h, MTT); 47900 nM in the test on G12 astrocytoma cells (G12 shControl, 48 h, MTT); 780 nM in the test on G12 astrocytoma cells (G12 shMer1, 48 h, MTT); 190 nM in the test with G12 astrocytoma cells (G12 shMer4, 48 h, MTT). Also, in test [3] (48 hours), the “sensitivity of A549 cells with inhibition of Mer expression” value is “increased sensitivity”.

Values taken from patent US20120230991A1, “METHODS AND COMPOUNDS FOR ENHANCING ANTI-CANCER THERAPY” (priority 2008, published 2012).
